How the values were obtained:
[1] = biological target: Inactive tyrosine-protein kinase transmembrane receptor ROR1 (Homo sapiens, UniProt Q01973); assay: Binding affinity to ROR1 kinase domain (453 to 783 residues) (unknown origin) assessed as dissociation constant by SPR analysis
NCI-H1975 = assay: Antiproliferative activity against human NCI-H1975 cells harboring high ROR1 expression assessed as inhibition of cell growth incubated for 72 hrs by MTT assay; assay type: functional, cell-based; details: NCI-H1975, 72 h
MDA-MB-231 = assay: Antiproliferative activity against human MDA-MB-231 cells harboring high ROR1 expression assessed as inhibition of cell growth incubated for 72 hrs by MTT assay; assay type: functional, cell-based; details: MDA-MB-231, 72 h
A549 = assay: Antiproliferative activity against human A549 cells harboring high ROR1 expression assessed as inhibition of cell growth incubated for 72 hrs by MTT assay; assay type: functional, cell-based; details: A549, 72 h

Inactive tyrosine-protein kinase transmembrane receptor ROR1, sequence (Q01973 whole entry, the tested form may be a part): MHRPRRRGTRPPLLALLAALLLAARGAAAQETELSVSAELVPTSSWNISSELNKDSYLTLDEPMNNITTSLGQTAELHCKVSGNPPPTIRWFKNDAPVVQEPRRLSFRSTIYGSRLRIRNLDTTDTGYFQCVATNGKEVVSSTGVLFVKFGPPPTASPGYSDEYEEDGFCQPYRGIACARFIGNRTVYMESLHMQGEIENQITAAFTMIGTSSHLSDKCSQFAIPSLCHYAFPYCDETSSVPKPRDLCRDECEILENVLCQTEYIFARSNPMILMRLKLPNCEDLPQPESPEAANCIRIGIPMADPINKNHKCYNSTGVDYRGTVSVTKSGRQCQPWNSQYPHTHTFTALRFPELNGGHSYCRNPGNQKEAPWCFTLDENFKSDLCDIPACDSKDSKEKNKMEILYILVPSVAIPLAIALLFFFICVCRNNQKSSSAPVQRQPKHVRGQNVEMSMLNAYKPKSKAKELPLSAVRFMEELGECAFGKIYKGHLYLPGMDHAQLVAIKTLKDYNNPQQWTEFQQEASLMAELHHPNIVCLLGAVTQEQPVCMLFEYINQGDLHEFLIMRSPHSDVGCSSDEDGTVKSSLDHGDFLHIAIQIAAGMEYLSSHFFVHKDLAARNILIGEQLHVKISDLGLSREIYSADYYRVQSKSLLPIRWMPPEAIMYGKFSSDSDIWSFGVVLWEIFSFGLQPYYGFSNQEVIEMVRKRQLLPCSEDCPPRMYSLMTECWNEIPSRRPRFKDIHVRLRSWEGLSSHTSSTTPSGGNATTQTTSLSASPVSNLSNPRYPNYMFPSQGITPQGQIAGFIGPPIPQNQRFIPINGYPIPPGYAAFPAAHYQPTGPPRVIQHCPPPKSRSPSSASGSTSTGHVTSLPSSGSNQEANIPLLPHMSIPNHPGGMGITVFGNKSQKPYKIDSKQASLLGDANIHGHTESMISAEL

## Cc1ccc(C(=O)Nc2cccc(N(C)C)c2)cc1C#Cc1cnc2cccnn12
[1]
  Kd: 8.25 µM
NCI-H1975
  IC50: 66.7 µM
MDA-MB-231
  IC50: 31.3 µM
A549
  IC50: 27.5 µM
